Data as given in patent publication US11730686B2, “Cosmetic skincare compositions” (THE BOOTS COMPANY PLC, priority 2017, dated 2023).

Tested on: Interleukin-6 (IL-6)
Assay: Interleukin-6 (IL-6) assay: UV-stressed skin cells, IL-6 ELISA of media supernatant
Assay type: cell-based
Settings: FIG. 2; active alone at 0.0001% by weight of the composition; skin cells (keratinocytes or fibroblasts), UV dose 61,500 Joules/m^2
Experimental: Interleukin-6 (IL-6) Assay Interleukin-6 (IL-6) bioactivity in skin cells was measured. IL-6 is a cytokine and used as a biomarker for inflammation. Skin cells (keratinocytes or fibroblasts) were placed under UV stress to induce an IL-6 response in the presence of an active or blend of actives to determine the activity of that active or blend of actives in inhibiting an IL-6 response. Skin cells (keratinocytes or fibroblasts) were taken from culture, seeded in a 96-well plate at a density of 5000 cells per well in cell growth media with supplements and left to incubate for 24 hours at 37° C. Determination of cell number for the purpose of plating was performed in accordance with standard methods known in the art. After incubation, the cell growth media was replaced with 100 μl of PBS without calcium and magnesium and containing the relevant concentration of active(s) required. Controls include untreated irradiated and non-irradiated samples which require 100 μl pure PBS without calcium and magnesium or containing a maximum of 0.1%. Dimethyl sulfoxide (DMSO) was used where necessary to dissolve the active(s). Salicylic acid is the positive control for this assay. The cells were incubated with the actives for 30 minutes at 37° C. before being irradiated with a UV dose of 61,500 Joules/m^2. […]

CCCCCCCCCCCCCC[C@@H](O)[C@@H](O)[C@@H](N)CO.Cl [phytosphingosine hydrochloride]
inhibited IL-6 activity: 58%
